# Measurements: patent publication US7348402B2, “Antimicrobial peptide, its analogs and antimicrobial composition comprising them” (priority 2002, dated 2008)
# No end group written: not given here.
# Columns and labels:
# Format in all cases: cell-based
# [1] = system: E. coli; assay: Cell penetration activity by confocal microscopy (FITC-labeled peptides); details: FITC-labeled peptide applied to fixed E. coli for 5 minutes
# Procedure: FIGS. 1A˜1D are the results of analyzing the cell penetration activity of the new antimicrobial peptides by confocal microscopy. To emphasize the location of the antimicrobial peptides, color was eliminated from the images. The white area in FIGS. 1A˜1D is the antimicrobial peptide penetrated within the cell.
# The cell penetration activity of the peptides prepared in Example 1 was observed by confocal microscopy. After inoculating and culturing E. coli in trypticase soy broth at 37° C. overnight, they were inoculated in new media and cultured for 2 hours to exponential growth phase. After washing E. coli with 10 mM NAPB (sodium phosphate buffer) and diluting to 10^5 CFU/ml, the above diluted E. coli was fixed for 30 min on glass-slides coated with poly-L-lysine. The N-terminus of the peptides prepared in Example 1 was labeled with FITC (fluoresceinisothicyanate), and the labeled peptides were applied to E. coli fixed on the glass-slides for 5 minutes. The glass-slides were washed with 10 mM NAPB and observed them by confocal microscopy.
# [2] = system: human red blood cells (hRBC); assay: Hemolytic activity on human red blood cells
# Procedure: After separating the precipitated human red blood cells (hRBC) from 3 ml of human blood, they were washed with PBS (phosphate buffered saline) and diluted to make the total volume of 20 ml. In 190 μl of the prepared hRBC solution, 10 μl of each peptide sample (4 μg/μl ) prepared in Example 1 was added to make the final concentration of 200 μg/ml, reacted for 1 h at 37° C. and centrifuged for 5 min at 4000 rpm. […] The absorbance of the sample treated with 0.2% Triton X-100 was set to represent 100% hemolysis and the percent (%) hemolysis of each sample was relatively calculated from each measured absorbance, as shown in Table 3.
# [3] = system: Salmonella enteritidis (ATCC 15277); details: ATCC 15277, 12 h
# Source text: (§1) The microorganisms used in the present invention include Gram-positive bacteria such as Bacillus subtilis (ATCC 62037), Staphylococcus aureus (ATCC 15752) and Streptococcus mutans (ATCC 25175), Gram-negative bacteria such as Escherichia coli (ATCC 27325), Salmonella enteritidis (ATCC 15277) and Pseudomonas putida (ATCC 17426) and fungi such as Candida albicans (ATCC 10231), Saccharomyces cerevisiae (ATCC 44774) and Cryptococcus neoformans (ATCC 34881), obtained from American Type Culture Collection (ATCC).
# (§2) The antimicrobial activity of the peptides prepared in Example 1 was determined against microorganisms by 96-well microdilution minimal inhibitory concentration assay. After overnight culturing the bacteria and fungi in trypticase soy broth (TSB) and Saboraud (SAB) at 37° C. and 30° C., respectively, they were inoculated in new media and cultured for 2 hours to exponential growth phase. After diluting the microorganisms to 10^5 per 1 ml, 190 μl was inoculated in each 96-well plate, and 10 μl of serially diluted peptides were added in each well.
# [4] = system: Streptococcus mutans (ATCC 25175); details: ATCC 25175, 12 h
# Source text: as §1, §2
# [5] = system: Pseudomonas putida (ATCC 17426); details: ATCC 17426, 12 h
# Source text: as §1, §2
# [6] = system: Staphylococcus aureus (ATCC 15752); details: ATCC 15752, 12 h
# Source text: as §1, §2
# [7] = system: Candida albicans (ATCC 10231); details: ATCC 10231, 12 h
# Source text: as §1, §2
# [8] = system: Cryptococcus neoformans (ATCC 34881); details: ATCC 34881, 12 h
# Source text: as §1, §2
# [9] = system: Escherichia coli (ATCC 27325); details: ATCC 27325, 12 h
# Source text: as §1, §2
# [10] = system: Saccharomyces cerevisiae (ATCC 44774); details: ATCC 44774, 12 h
# Source text: as §1, §2
# [11] = system: Bacillus subtilis (ATCC 62037); details: ATCC 62037, 12 h
# Source text: as §1, §2
Compound,cell penetration activity [1],"A567 ([2]; absorbance of supernatant diluted 10 times, peptide 200 μg/ml, 1 h at 37° C.)",hemolysis of hRBC (in words) ([2]; concentration of 200 μg/ml),Minimum Inhibitory Concentration [3],Minimum Inhibitory Concentration [4],Minimum Inhibitory Concentration [5],Minimum Inhibitory Concentration [6],Minimum Inhibitory Concentration [7],Minimum Inhibitory Concentration [8],Minimum Inhibitory Concentration [9],Minimum Inhibitory Concentration [10],Minimum Inhibitory Concentration [11]
33 (KLVRNWPIGKLVRKLVRKLVR; antimicrobial peptide) [compound 33],penetrate into E. coli cells,–,–,–,–,–,–,–,–,–,–,–
"CC[C@H](C)[C@H](NC(=O)CN)C(=O)NCC(=O)N[C@@H](C)C(=O)N[C@H](C(=O)N[C@@H](CC(C)C)C(=O)N[C@@H](CCCCN)C(=O)N[C@H](C(=O)N[C@@H](CC(C)C)C(=O)N[C@H](C(=O)N[C@H](C(=O)NCC(=O)N[C@@H](CC(C)C)C(=O)N1CCC[C@H]1C(=O)N[C@@H](C)C(=O)N[C@@H](CC(C)C)C(=O)N[C@H](C(=O)N[C@@H](CO)C(=O)N[C@@H](Cc1c[nH]c2ccccc12)C(=O)N[C@H](C(=O)N[C@@H](CCCCN)C(=O)N[C@@H](CCCNC(=N)N)C(=O)N[C@@H](CCCCN)C(=O)N[C@@H](CCCNC(=N)N)C(=O)N[C@@H](CCC(N)=O)C(=O)N[C@@H](CCC(N)=O)C(N)=O)[C@@H](C)CC)[C@@H](C)CC)[C@@H](C)O)[C@@H](C)O)C(C)C)C(C)C [Melittin, melittin]",–,3.17,destroy almost all hRBC,–,–,–,–,–,–,–,–,–
"GIGKFLHSAKKFGKAFVGEIMNS [Magainin, magainin, reference compound]",bind with cell membrane,–,–,–,–,–,–,–,–,–,–,–
RVLKQWPIGRVLKRVLKRVLK [compound 13],–,–,–,1 µg/mL,2 µg/mL,1 µg/mL,1 µg/mL,1 µg/mL,1 µg/mL,1 µg/mL,2 µg/mL,2 µg/mL
RVLKRVLKRVLKNWPIGRVLK-NH2 [compound 72],–,–,–,1 µg/mL,2 µg/mL,1 µg/mL,1 µg/mL,1 µg/mL,1 µg/mL,1 µg/mL,2 µg/mL,1 µg/mL
RVLKRVLKRVLKQWPIGRVLK [compound 47],–,–,–,1 µg/mL,2 µg/mL,1 µg/mL,1 µg/mL,1 µg/mL,1 µg/mL,1 µg/mL,2 µg/mL,1 µg/mL
RVLRQWPIGRVLRRVLRRVLR [compound 5],–,–,–,1 µg/mL,1 µg/mL,1 µg/mL,1 µg/mL,1 µg/mL,1 µg/mL,1 µg/mL,2 µg/mL,1 µg/mL
RVLRRVLRRVLRQWPIGRVLR [compound 39],–,–,–,1 µg/mL,2 µg/mL,1 µg/mL,2 µg/mL,2 µg/mL,1 µg/mL,1 µg/mL,2 µg/mL,2 µg/mL
RVVKNWPIGRVVKRVVKRVVK [compound 26],–,–,–,1 µg/mL,1 µg/mL,1 µg/mL,1 µg/mL,2 µg/mL,1 µg/mL,2 µg/mL,2 µg/mL,1 µg/mL
RVVKRVVKRVVKNWPIGRVVK [compound 60],–,–,–,2 µg/mL,2 µg/mL,1 µg/mL,2 µg/mL,1 µg/mL,1 µg/mL,2 µg/mL,1 µg/mL,1 µg/mL
RVVRNWPIGRVVRRVVRRVVR [compound 18],–,–,–,2 µg/mL,2 µg/mL,1 µg/mL,1 µg/mL,1 µg/mL,1 µg/mL,1 µg/mL,1 µg/mL,1 µg/mL
RVVRQWPIGRVVRRVVRRVVR [compound 1],–,–,–,1 µg/mL,2 µg/mL,1 µg/mL,1 µg/mL,2 µg/mL,1 µg/mL,1 µg/mL,2 µg/mL,2 µg/mL
RVVRRVVRRVVRNWPIGRVVR [compound 52],–,–,–,2 µg/mL,2 µg/mL,1 µg/mL,1 µg/mL,1 µg/mL,1 µg/mL,1 µg/mL,1 µg/mL,1 µg/mL
RVVRRVVRRVVRQWPIGRVVR [compound 35],–,–,–,1 µg/mL,1 µg/mL,1 µg/mL,1 µg/mL,1 µg/mL,1 µg/mL,2 µg/mL,2 µg/mL,1 µg/mL
SEQ ID NO: 1 (RVVRQWPIGRVVRRVVRRVVR; antimicrobial peptide),penetrate into E. coli cells,–,–,–,–,–,–,–,–,–,–,–
